Assay [1] deals with BRCA mutant human breast cancer MDA-MB-436 cell line. As to the kind of experiment: Growth inhibition of MDA-MB-436 cells, CTG (Celltiter-Glo) method. The format is cell-based. The conditions noted are these: MDA-MB-436, 168 h, 7 days incubation, read-out: IC50 (nM), inhibition of proliferation of MDA-MB-436 cells, CTG method. As for the experimental part: (§1) The cells were cultured in complete medium (DMEM medium+10% FBS+Insulin+glutathione). When the confluence reached about 80%, cells were digested and gently dispensed from the bottom of the dish with a 1 mL pipette. Cell suspension was collected and centrifuged at 500 rpm for 3 min. The supernatant was discarded, and the cell pellet were re-suspended in complete medium. The cells were seeded into a culture dish at an appropriate proportion, and then cultured in a 5% CO2 incubator at 37° C. The assay was carried out when the cells were in optimum condition and the confluence was reached 80%. Cells in the logarithmic growth phase were taken to centrifugate, and the culture supernatant was removed. The cells were resuspended in refresh complete medium and counted. The resuspended cells were seeded at 3000/well in a 96-well plate and incubated at 37° C., 5% CO2 incubator overnight. The compound was prepared as below: 1000× dilution tested compound solution to 40× test compound solution by adding 5 μL 1000× compound solution to 120 μL Medium (25-fold dilution). The solution was mixed by oscillation, 0.1% DMSO was used as the control.
(§2) The next day, the 96-well plate inoculated with cells was taken out from the incubator, and the culture supernatant was removed. Then fresh medium of 195 uL/well and 5 μL/well of 40× test compound solution as mentioned above were added into the 96 well plate, respectively. Finally, the plate was incubated for 7 days in a 37° C. 5% CO2 incubator. The medium containing compound was changed on the fourth day.
CTG Method: After 7 days, 100 μL Celltiter-Glo reagent was added to each well, and then the plate was shake for 2 minutes to fully lysate. Then the plate was incubated at room temperature for 10 minutes, and the chemiluminescence values were read by plate reader.
The inhibitory activity of compounds on cell proliferation was plotted using cell survival rate against the compound concentration as coordinates. Cell inhibition rate %=(Lumcompound−LumDMSO)/(Lummedium−LumDMSO)×100. Lum refers to the chemiluminescence value.
XL Fit software was used to Fit nonlinear s-curve regression to Fit the data to obtain dose-effect curves, from which IC50 values were calculated. Y=Bottom+(Top−Bottom)/(1+10^((Log IC50−X)×slope)), Where Y is the cell inhibition rate, X is the compound concentration, Bottom is the lowest inhibition rate. Top is the highest inhibition rate.
Table 2 summarizes the inhibitory effect data (IC50) of the compounds on the proliferation of human breast cancer cells MDA-MB-436 determined by CTG method.

For assay [2] the test system is unchanged. Nature of the assay: Growth inhibition of MDA-MB-436 cells, CCK-8 method. The format is cell-based. The conditions noted are these: MDA-MB-436, 168 h, 7 days incubation, read-out: IC50 (nM), inhibition of proliferation of MDA-MB-436 cells, CCK-8 method. On the procedure:
as §1, §2
CCK Method: After 7 days, 20 μL of CCK-8 was added to each well and shaken gently, then was cultured for 4 hours. The plate was shaken for 5 min after incubation, the absorbance values of 450 nm or 650 nm wavelengths were recorded respectively (OD=absorbance value of 450 nm−absorbance value of 650 nm) by using the multifunction readout instrument.
Data were analyzed by software GraphPad Prism 6.0. The inhibitory activity of compounds on cell proliferation was plotted using cell survival rate against the compound concentration as coordinates. Cell survival rate %=(ODcompound−ODbackground)/(ODDMSO−ODbackground)×100. The IC50 value was fitted by the s-shaped dose response curve equation: Y=100/(1+10^(log C−log IC50)), and C was the compound concentration.
Table 3 summarizes the inhibitory effect data (IC50) of the compounds on the proliferation of human breast cancer cells MDA-MB-436 determined by CCK-8 method.
Background: Formazan colour is commonly taken as a measure of viable cells.

The target in the next assay is USP1/UAF1 (Homo sapiens (Human), UniProt O94782). Nature of the assay: USP1/UAF1 activity, ubiquitin-rhodamine110-glycine (Ub-Rho) assay. The settings on record: 0.1 nM USP1/UAF1, 100 nM Ub-Rho, 120 minutes; read-out: IC50 (nM), inhibitory effects on USP1/UAF1 activity. The format is biochemical. As for the experimental part:
USP1/UAF1 activity was determined by using ubiquitin-rhodamine110-glycine (Ub-Rho; Boston Biochem) assay. Enzymatic reactions were conducted in an assay buffer (50 mM Tris-HCl, pH 7.8, 0.5 mM EDTA, 100 mM NaCl, 1 mM DTT, 0.01 BSA, and 0.01% Tween-20) that contained 0.1 nM USP1/UAF1. Each individual compound was tested at ten concentrations in the range of 0.0005 to 10 μM. The plates were incubated for 15 min to attain equilibrium, and then the enzymatic reaction was initiated by dispensing 10 μL of Ub-Rho solution (100 nM final concentration). After treating 120 minutes with Ub-Rho solution, the rhodamine fluorescence was acquired using a 480 nm excitation/540 nm emission filter set by using Envision instrument. The inhibition rate of the compound to USP1/UAF1 enzyme activity was calculated according to the following formula.
IC50 value is obtained by fitting the s-shaped dose response curve equation by using XL Fit software. The curve equation is Y=100/(1+10^(log C−log IC50)). C is the compound concentration.

Sequence of USP1/UAF1 (O94782 whole entry): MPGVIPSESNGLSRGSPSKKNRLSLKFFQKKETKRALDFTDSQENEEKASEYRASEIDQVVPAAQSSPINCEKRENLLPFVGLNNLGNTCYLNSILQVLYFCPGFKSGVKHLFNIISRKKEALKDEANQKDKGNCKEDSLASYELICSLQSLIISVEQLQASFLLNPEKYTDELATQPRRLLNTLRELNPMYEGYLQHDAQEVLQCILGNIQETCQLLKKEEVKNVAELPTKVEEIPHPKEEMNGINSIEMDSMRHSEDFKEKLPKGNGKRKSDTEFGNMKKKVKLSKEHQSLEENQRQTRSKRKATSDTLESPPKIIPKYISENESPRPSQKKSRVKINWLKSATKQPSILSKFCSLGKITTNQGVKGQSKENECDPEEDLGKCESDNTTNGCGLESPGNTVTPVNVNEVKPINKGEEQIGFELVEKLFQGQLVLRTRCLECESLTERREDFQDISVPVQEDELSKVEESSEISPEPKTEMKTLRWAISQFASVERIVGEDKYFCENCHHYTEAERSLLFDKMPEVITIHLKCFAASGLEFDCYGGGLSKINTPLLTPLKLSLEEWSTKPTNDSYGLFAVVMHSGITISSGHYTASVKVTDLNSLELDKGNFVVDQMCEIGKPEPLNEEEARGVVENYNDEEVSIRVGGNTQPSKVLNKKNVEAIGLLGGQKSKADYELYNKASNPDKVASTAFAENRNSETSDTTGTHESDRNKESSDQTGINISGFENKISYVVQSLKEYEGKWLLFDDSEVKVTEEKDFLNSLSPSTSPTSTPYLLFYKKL
Sequence of USP1/UAF1 (Q8TAF3 whole entry partner): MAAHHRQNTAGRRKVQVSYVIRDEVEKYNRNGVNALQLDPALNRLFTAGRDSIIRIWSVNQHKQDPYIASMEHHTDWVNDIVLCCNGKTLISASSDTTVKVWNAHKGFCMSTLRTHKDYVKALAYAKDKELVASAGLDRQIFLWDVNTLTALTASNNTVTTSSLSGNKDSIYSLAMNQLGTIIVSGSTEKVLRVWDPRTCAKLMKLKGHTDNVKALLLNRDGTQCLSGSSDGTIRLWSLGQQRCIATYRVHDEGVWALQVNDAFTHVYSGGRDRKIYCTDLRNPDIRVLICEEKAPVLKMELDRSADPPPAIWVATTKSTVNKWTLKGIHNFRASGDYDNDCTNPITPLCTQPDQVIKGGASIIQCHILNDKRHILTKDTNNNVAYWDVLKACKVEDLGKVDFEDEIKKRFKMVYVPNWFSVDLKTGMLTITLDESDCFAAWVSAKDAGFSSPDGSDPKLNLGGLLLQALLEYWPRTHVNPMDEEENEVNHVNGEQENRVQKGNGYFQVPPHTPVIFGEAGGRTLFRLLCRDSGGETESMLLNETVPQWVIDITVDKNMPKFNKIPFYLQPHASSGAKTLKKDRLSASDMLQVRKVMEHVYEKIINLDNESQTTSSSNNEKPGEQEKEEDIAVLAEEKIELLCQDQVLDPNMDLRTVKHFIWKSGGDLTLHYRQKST

`Cc1cn(C)c(-c2ccc(Cc3cccn4nc(-c5ccccc5C(C)C)nc34)cc2)n1` [Example 1, 8-(4-(1,4-dimethyl-1H-imidazol-2-yl)benzyl)-2-(2-isopropylphenyl)-[1,2,4]triazolo[1,5-a]pyridine]: in assay [1], the IC50 is 161 nM.

For the compound `COc1ccccc1-c1nc2c(Cc3ccc(-c4nc(C)cn4C)cc3)cccn2n1` [Example 2, 8-(4-(1,4-dimethyl-1H-imidazol-2-yl)benzyl)-2-(2-methoxyphenyl)-[1,2,4]triazolo[1,5-a]pyridine], in assay [1], the IC50 was over 1000 nM.

For `CC(C)c1ccccc1-c1nc2c(Cc3ccc(-c4nc(C(F)(F)F)cn4C)cc3)cccn2n1` [Example 3, 2-(2-isopropylphenyl)-8-(4-(1-methyl-4-(trifluoromethyl)-1H-imidazol-2-yl)benzyl)-[1,2,4]triazolo[1,5-a]pyridine], the IC50 in assay [2] was found to be 111 nM; in assay [1], 57.6 nM.

In the case of `COc1ncnc(C2CC2)c1-c1nc2c(Cc3ccc(-c4nc(C(F)(F)F)cn4C(C)C)cc3)cccn2n1` [Example 4, 2-(4-cyclopropyl-6-methoxypyrimidin-5-yl)-8-(4-(1-isopropyl-4-(trifluoromethyl)-1H-imidazol-2-yl)benzyl)-[1,2,4]triazolo[1,5-a]pyridine], the IC50 was found to be 25.5 nM in assay [2] and 66.6 nM at USP1/UAF1.

Turning to `COc1ncnc(C2CC2)c1-c1nc2c(Cc3ccc(-c4nc(C(F)(F)F)cn4C)cc3)cccn2n1` [Example 5, 2-(4-cyclopropyl-6-methoxypyrimidin-5-yl)-8-(4-(1-methyl-4-(trifluoromethyl)-1H-imidazol-2-yl)benzyl)-[1,2,4]triazolo[1,5-a]pyridine], the results for the IC50 (in assay [2]; on USP1/UAF1) were 38.8 nM and 39.1 nM, respectively.

On to `COc1ncnc(C2CC2)c1-c1nc2c(Cc3ccc(-n4nc(C(F)(F)F)cc4C)cc3)cccn2n1` [Example 6, 2-(4-cyclopropyl-6-methoxypyrimidin-5-yl)-8-(4-(5-methyl-3-(trifluoromethyl)-1H-pyrazol-1-yl)benzyl)-[1,2,4]triazolo[1,5-a]pyridine], for which the IC50 in assay [2] was 28.3 nM; on USP1/UAF1, 460 nM.

In the case of `COc1ncnc(C2CC2)c1-c1nc2cccc(Cc3ccc(-c4nc(C(F)(F)F)cn4C)cc3)n2n1` [Example 14, 2-(4-cyclopropyl-6-methoxypyrimidin-5-yl)-5-(4-(1-methyl-4-(trifluoromethyl)-1H-imidazol-2-yl)benzyl)-[1,2,4]triazolo[1,5-a]pyridine], the IC50 in assay [2] stood at 26.4 nM; in assay [1], 21.6 nM; at USP1/UAF1, 30.6 nM.

Take `Cc1cnn(C(C)C)c1-c1nc2c(Cc3ccc(-c4nc(C(F)(F)F)cn4C)cc3)cccn2n1` [Example 16, 2-(1-isopropyl-4-methyl-1H-pyrazol-5-yl)-8-(4-(1-methyl-4-(trifluoromethyl)-1H-imidazol-2-yl)benzyl)-[1,2,4]triazolo[1,5-a]pyridine]: the figures for the IC50 (in assay [2]; on USP1/UAF1) were 13.2 nM and 15.8 nM, respectively.

Take `Cc1cnn(C(C)C)c1-c1nc2c(Cc3ccc(-c4nc(C(F)(F)F)cn4C)cc3)ccnn2n1` [Example 17, 2-(1-isopropyl-4-methyl-1H-pyrazol-5-yl)-8-(4-(1-methyl-4-(trifluoromethyl)-1H-imidazol-2-yl)benzyl)-[1,2,4]triazolo[1,5-b]pyridazine]: in assay [2], the IC50 came to 39.5 nM.

As for `COc1ncnc(C2CC2)c1-c1nc2c(Cc3ccc(-c4nc(C(F)(F)F)cn4C)cc3)cncn2n1` [Example 19, 2-(4-cyclopropyl-6-methoxypyrimidin-5-yl)-8-(4-(1-methyl-4-(trifluoromethyl)-1H-imidazol-2-yl)benzyl)-[1,2,4]triazolo[1,5-c]pyrimidine], the IC50 in assay [2] turned out to be 44.8 nM; on USP1/UAF1 it was 138 nM.

`COc1ncnc(C2CC2)c1-c1nc2cncc(Cc3ccc(-c4nc(C(F)(F)F)cn4C)cc3)n2n1` [Example 22, 2-(4-cyclopropyl-6-methoxypyrimidin-5-yl)-5-(4-(1-methyl-4-(trifluoromethyl)-1H-imidazol-2-yl)benzyl)-[1,2,4]triazolo[1,5-a]pyrazine]: the IC50 was found to be 227 nM in assay [1] and 147 nM at USP1/UAF1.

Take `COc1ncnc(C2CC2)c1-c1nc2nccc(Cc3ccc(-c4nc(C(F)(F)F)cn4C)cc3)n2n1` [Example 23, 2-(4-cyclopropyl-6-methoxypyrimidin-5-yl)-7-(4-(1-methyl-4-(trifluoromethyl)-1H-imidazol-2-yl)benzyl)-[1,2,4]triazolo[1,5-a]pyrimidine]: the IC50 was determined as 496 nM in assay [1] and 175 nM on USP1/UAF1.

As to `COc1ncnc(OC)c1-c1nc2c(Cc3ccc(-c4nc(C(F)(F)F)cn4C)cc3)cccn2n1` [Example 27, 2-(4,6-dimethoxypyrimidin-5-yl)-8-(4-(1-methyl-4-(trifluoromethyl)-1H-imidazol-2-yl)benzyl)-[1,2,4]triazolo[1,5-a]pyridine], the IC50 in assay [1] amounted to 158 nM.

For `COc1ncnc(C2CCC2)c1-c1nc2c(Cc3ccc(-c4nc(C(F)(F)F)cn4C)cc3)cccn2n1` [Example 28, 2-(4-cyclobutyl-6-methoxypyrimidin-5-yl)-8-(4-(1-methyl-4-(trifluoromethyl)-1H-imidazol-2-yl)benzyl)-[1,2,4]triazolo[1,5-a]pyridine], the IC50 is 40.6 nM in assay [1] and 26 nM at USP1/UAF1.

As to `COc1ncnc(C2CC2)c1-c1nc2ccnc(Cc3ccc(-c4nc(C(F)(F)F)cn4C4CC4)cc3)n2n1` [Example 40, 5-(4-(1-cyclopropyl-4-(trifluoromethyl)-1H-imidazol-2-yl)benzyl)-2-(4-cyclopropyl-6-methoxypyrimidin-5-yl)-[1,2,4]triazolo[1,5-c]pyrimidine], the IC50 in assay [1] is 21.1 nM; at USP1/UAF1, 19.9 nM.

With `COc1ncnc(C2CC2)c1-c1nc2ccnc(Cc3ccc(-c4nc(C(F)(F)F)cn4C)c(F)c3)n2n1` [Example 41, 2-(4-cyclopropyl-6-methoxypyrimidin-5-yl)-5-(3-fluoro-4-(1-methyl-4-(trifluoromethyl)-1H-imidazol-2-yl)benzyl)-[1,2,4]triazolo[1,5-c]pyrimidine], the figures for the IC50 (in assay [1]; on USP1/UAF1) were 55.3 nM and 34.2 nM, respectively.

The record behind these values is patent US20240409538A1, “SUBSTITUTED TRIAZOLOHETEROARYL COMPOUNDS AS USP1 INHIBITORS AND THE USE THEREOF” (IMPACT THERAPEUTICS (SHANGHAI), INC., priority 2021, published 2024).
